Data: patent US20200393345A1, “HEPARIN-BASED BLOOD SAMPLER WITHOUT PLATELET ACTIVATION” (Radiometer Medical ApS, priority 2017, published 2020)
Entries after “also recorded” stand apart in the source; their conditions may differ. Structures can show the parent of a compound that is named as a salt.

tested on: platelets; assay: Manual platelet count (single platelets, platelet aggregates) in heparinized blood with anti-platelet agents, hemocytometer; type: cell-based; settings: venous whole blood in PICO70 samplers with heparin 60 IU/mL (LiHep or PicoSAM), two concentration levels of drug, mixed 15 minutes
Protocol: Each experiment was conducted on a separate day with blood from one voluntary donor testing one anti-platelet drug candidate. For each experiment PICO70 syringe samplers (Radiometer Medical ApS) were prepared just before sample drawing. For “LiHep” (Liquid Heparin) conditions, PICO70 samplers were emptied of the gold ball and heparin brick and 15 μl of aqueous liquid balanced heparin comprising heparin lithium (Celsus Laboratories) and heparin sodium (Celsus Laboratories) (final heparin conc. 60 IU/mL blood) and 15 μl of the solvent of the tested drug were added. For “PicoSAM” conditions, unmodified PICO70 samplers (with gold ball and heparin brick) were used and 15 μl of the solvent of the respective tested drug was added. For “LiHep xxx drug” conditions, PICO70 samplers were emptied as described for LiHep and 15 μl of liquid balanced heparin (final heparin conc. 60 IU/mL blood) and 15 μl of the dissolved tested drug were added. For “PicoSAM xxx drug” conditions, unmodified PICO70 samplers (with gold ball and heparin brick) were used and 15 μl of the dissolved tested drug was added. […] 600 μM and 6 mM) and dipyridamole (Sigma, D9766; dissolved in 1:10 or 1:100 DMSO in saline, final conc. 10 and 100 μM). An EDTA tube (BD Vacutainer with spray-coated K2EDTA, 10 ml) and duplicate samples of all conditions of PICO70 syringe samplers were filled by drawing venous blood via a butterfly needle using a sealed VTC (vented tip cap) to fill the otherwise self-aspirating PICO70 samplers with 1.5 mL venous whole blood. Samplers were inverted 8 times immediately after drawing to insure proper anticoagulation of the samples. The blood samples were mixed gently by hand (samplers without gold ball) or on a SAM mixer (Radiometer Medical ApS) for 15 minutes after drawing the sample. Mixed samples were fixed immediately with 10% formalin solution (1:1 dilution of blood in formalin) for at least 10 minutes and further diluted 1:10 in platelet dilution solution to hemolyze red blood cells (RBCs) to assessed manual platelet count using a hemocytometer. […] Single platelet counts were adjusted for dilution with liquid heparin and or dissolved drug solution to calculate single platelet concentrations.

Molecule	Single platelet count compared to EDTA reference
CC#CCC(C)[C@H](O)/C=C/[C@@H]1[C@H]2C/C(=C/CCCC(=O)O)C[C@H]2C[C@H]1O (stereo partly drawn) [Iloprost, iloprost]	comparable to standard EDTA anticoagulated blood
N=C(N)NCCC[C@H](N)C(=O)O [L-Arginine]	decreased number of platelets
CCCCS(=O)(=O)N[C@@H](Cc1ccc(OCCCCC2CCNCC2)cc1)C(=O)O [Tirofiban, tirofiban hydrochloride monohydrate]	comparable to standard EDTA anticoagulated blood
eptifibatide acetate	comparable to standard EDTA anticoagulated blood

same assay, conditions: venous whole blood in PICO70 samplers with heparin, two concentration levels of drug, mixed 15 minutes

Molecule	Single platelet count compared to LiHep and PicoSAM controls	Formation of platelet aggregates compared to LiHep and PicoSAM references	Number of platelet aggregates compared to EDTA
OCCN(CCO)c1nc(N2CCCCC2)c2nc(N(CCO)CCO)nc(N3CCCCC3)c2n1 [Dipyridamole, dipyridamole]	slightly higher platelet number		
CC#CCC(C)[C@H](O)/C=C/[C@@H]1[C@H]2C/C(=C/CCCC(=O)O)C[C@H]2C[C@H]1O (stereo partly drawn) [Iloprost, iloprost]		reduced the formation of platelet aggregates	no or few aggregates
N=C(N)NCCC[C@H](N)C(=O)O [L-Arginine]	slightly higher platelet count		higher number of platelet aggregates
O=S(=O)([O-])[O-].[Mg+2] [MgSO4]		reduced the formation of platelet aggregates	
Clc1ccccc1CN1CCc2sccc2C1 [Ticlopidine LiHep, ticlopidine hydrochloride]		slightly reduced number of aggregates	
CCCCS(=O)(=O)N[C@@H](Cc1ccc(OCCCCC2CCNCC2)cc1)C(=O)O [Tirofiban, tirofiban hydrochloride monohydrate]		reduced the formation of platelet aggregates	no or few aggregates
eptifibatide acetate		reduced the formation of platelet aggregates	no or few aggregates

tested on: platelets; assay: Wet mount phase-contrast images of fixed blood samples, platelet aggregation; type: cell-based; settings: fixed venous blood, 40x phase-contrast; eptifibatide 20 μM added to heparin
Description: Venous blood samples drawn, mixed and fixed with 10% formalin solution, as described before in Example 1 were used to prepare wet mounts on a glass slide and covered with a glass coverslip. Wet mount samples of fixed blood cells were then imaged with a Leica 750 microscope using a 40× phase-contrast air objective.

Molecule	Platelet aggregates in microscopic images
O=C(O)CN(CCN(CC(=O)O)CC(=O)O)CC(=O)O [EDTA, Ethylenediaminetetraacetic acid]	prevents platelet activation and maintains single platelets; also recorded: cannot be seen
eptifibatide acetate	cannot be observed; also recorded: cannot be seen
heparin	allows or even potentiates platelet aggregation; also recorded: showed platelet aggregates

tested on: WBCs (white blood cells) and platelets; assay: Wet mount images of stained and hemolyzed blood samples; type: cell-based; settings: PicoSAM samples; 1 μM tirofiban, 20 μM eptifibatide, 100 nM iloprost
Protocol: Venous blood samples were drawn and mixed as described before in Example 1 and used to prepare stained wet mounts images. Blood samples were mixed with a staining and hemolyzing agent (methylene blue and deoxycholic acid, respectively) and incubated at 47° C. in a water bath for 30 seconds. Stained and hemolyzed blood samples were then prepared in wet mount samples on a glass slide and covered with a glass coverslip. Images of stained samples were then acquired with a Leica 750 microscope using a 40× air objective in bright field mode. An image processing software (FIJI, ImageJ) was used to select regions of interest (ROIs) of representative stained WBCs from the images.

Molecule	Platelets in stained wet mount images (single, aggregated, satellinism)	WBC aggregates in stained wet mount images
O=C(O)CN(CCN(CC(=O)O)CC(=O)O)CC(=O)O [EDTA, Ethylenediaminetetraacetic acid]	same results	same results
CC#CCC(C)[C@H](O)/C=C/[C@@H]1[C@H]2C/C(=C/CCCC(=O)O)C[C@H]2C[C@H]1O (stereo partly drawn) [Iloprost, iloprost]	single platelets, not platelet satellinism	not platelet satellinism or WBC aggregates
CCCCS(=O)(=O)N[C@@H](Cc1ccc(OCCCCC2CCNCC2)cc1)C(=O)O [Tirofiban, tirofiban hydrochloride monohydrate]	single platelets but also platelet satellinism	WBC aggregates were also observed
eptifibatide acetate	single platelets but also platelet satellinism	WBC aggregates were also observed

same assay, conditions: statement in the description

Molecule	WBC aggregation in the blood sample (leukocyte activation)
CC#CCC(C)[C@H](O)/C=C/[C@@H]1[C@H]2C/C(=C/CCCC(=O)O)C[C@H]2C[C@H]1O (stereo partly drawn) [Iloprost, iloprost]	very low WBC aggregation
